The text below walks through data of paper PMC9743467 (Matter, 2022).

Series [1] concerns SARS-CoV-2 PsV. The class given is cell-based.
The subject of a further series is SARS-CoV PsV. The class given is cell-based.
In another series the test system is VSV-G PsV. The class given is cell-based, vesicular stomatitis virus.
In series [2] the test system is SARS-CoV-2 PsV. The class given is cell-based. This is another data set of the same source.
The subject of series [3] is SARS-CoV-2 (USA-WA1/2020). The class given is in vivo, K18-hACE2 mice infected with SARS-CoV-2. The conditions noted are these: n = 8.
The format of series [4] is in vivo, K18-hACE2 mice. Particulars: n = 8.
For series [5] the following is noted: source not given; cited from earlier work.

For the substance “ACE2: recombinant human angiotensin-converting enzyme 2, soluble, R&D Systems”, the “inhibition of SARS-CoV-2 PsV infection” value in the series on SARS-CoV-2 PsV [1] was “strongly inhibited”. In addition, in the series with SARS-CoV PsV, the “inhibition of SARS-CoV PsV infection” value is given as “strongly inhibited”. Also, the “inhibition of VSV-G PsV infection” value in the series with VSV-G PsV is listed as “This trend is not observed”. Moreover, the “time at which inhibition equals that of empty filaments” value in the series on SARS-CoV-2 PsV [2] is not above 6 h. Moreover, the “viral load in SARS-CoV-2-infected lungs” value in series [3] is given as “negligible effect on viral load”. Further, the body weight loss result in series [4] was “similar”. Also, in series [5], the pI entry is reported as “≈ 5.36”.
